The test system of this test is Human dermal fibroblasts. Put plainly: Cell activity (AlamarBlue) of cells irradiated with UV through a UV wavelength conversion substance. Conditions: for cell activity at UV irradiation (relative fluorescence intensity): UV dose 0, 10, 25, 50, 75 or 100 mJ/cm^2, FIG. 3. It counts as cell-based. As for the experimental part: 1. Human dermal fibroblasts and human skin keratinocytes purchased from Kurabo Industries Ltd. were used. A cell suspension (1 mL) stored in liquid nitrogen was thawed in a water bath (37° C.) to an extent that small ice pellets remained, and then diluted with 9 mL of warm medium.
10. Depending on the cell type, fibroblasts were resuspended in FGM or KGM at a concentration of 2×10^4 cells/well (500 μL), and keratinocytes were resuspended in FGM or KGM at a concentration of 4×10^4 cells/well (500 μL) and plated 24-well plates.
11. Cells were seeded in 24-well plates and the media were changed periodically (once every 2 days for fibroblasts and once every 2 to 3 days for keratinocytes) and the cells were grown until 60 to 70% confluence (depending on the type of experiment) was reached. (Note: Fibroblasts should reach the desired confluency in 24 hours at a cell density of 2×10^4 cells/well. When the cell density is low, for example, 1×10^4 cells/well, it takes 48 hours for fibroblasts to reach the desired confluency.)
12. 24 hours before irradiation, the medium was changed to a supplement-free medium (in the case of keratinocytes) or a medium containing a low concentration of serum (0.5% FCS) (in the case of fibroblasts).
1. A solar simulator was turned on at least 30 minutes before irradiation to warm up a lamp. The solar simulator was set to use a UG11 filter. UG11 filters are filters that allow only UVB to pass and cut light of other wavelengths.
3. The cells prepared in Experiment 1-2 were washed once with warm PBS.
4. To each well was added 0.5 mL of a warmed Martinez solution (145 mM NaCl, 5.5 mM KCl, 1.2 mM MgCl2.6H2O, 1.2 mM NaH2PO4.2H2O, 7.5 mM HEPES, 1 mM CaCl2, and 10 mM D-glucose).
5. As depicted in FIG. 1, cell wells were placed on a plate. Then, 0.4 ml of a solution containing the UV wavelength conversion substances (1) to (4) prepared in Experiment 1-1 was injected into each well of a 24-well plate. […]
4. Fluorescence measurement values at 544 nm/590 nm were read using a fluorometer (OPwave +, Ocean Photonics). […]

Here are results for one substance from patent publication US20220160604A1, “EMULSION COMPOSITION COMPRISING ULTRAVIOLET WAVELENGTH CONVERSION SUBSTANCE AND ORGANIC OILY PHASE THICKENER” (Shiseido Company, Ltd., priority 2019, published 2022).

C-phycocyanin: the “cell activity at UV irradiation (relative fluorescence intensity)” value is, setting by setting: (0.4% C-phycocyanin solution) “the decrease in cell activity was suppressed”; (2% C-phycocyanin solution) “the cell activity was even increased”. Besides, the “cell activity of cells having activity temporarily reduced by UV (relative fluorescence intensity)” value (pre-irradiation 400 mJ/cm^2 without substance, then UV 0-200 mJ/cm^2 through 0.4% or 2% C-phycocyanin (effect equivalent at both), FIG. 5) is given as “cell activity was recovered”.
